Here are results for 4 molecules from patent US5057493A, “Novel antibiotics R106” (priority 1988, dated 1991).

In data set [1] the test system is Cryptococcus neoformans TIMM 0354. Briefly: MIC by agar dilution method, casitone agar. The format is cell-based. The settings on record: Table 5. Here is the method:
(§1) The minimum inhibitory concentration (MIC) of each antibiotic against various fungi was determined by the agar dilution method using casitone agar medium (2.0% glucose, 0.9% bacto-casitone, 1.0% yeast extract, 0.1% KH2 PO4, 0.1% Na2 HPO4, 1.0% sodium citrate, 2.0% agar: concentrations are all by w/v).
(§2) Each minimum growth inhibitory concentration was determined after culturing at 27° C. for 4 days.

The subject of data set [2] is Candida glabrata TIMM 1062. Briefly: MIC by agar dilution method, casitone agar. The settings on record: Table 5. The format is cell-based. The method, then:
as §1, §2
For orientation: In agar dilution the substance is mixed into plates at graded concentrations.

The subject of data set [3] is Candida albicans TIMM 0171. Briefly: MIC by agar dilution method, casitone agar. The format is cell-based. The settings on record: Table 5. Here is the method: (§3) The antibiotics R106 of the present invention are active against various fungi including pathogenic fungi. The minimum inhibitory concentration (MIC) of each antibiotic against various fungi was determined by the agar dilution method using casitone agar medium (2.0% glucose, 0.9% bacto-casitone, 1.0% yeast extract, 0.1% KH2 PO4, 0.1% Na2 HPO4, 1.0% sodium citrate, 2.0% agar: concentrations are all by w/v).

Data set [4] relates to Candida albicans TIMM 1768. Briefly: MIC by agar dilution method, casitone agar. It is filed as cell-based. The following applies: Table 5. The method, then:
as §3

In a further data set the test system is Candida kefyr TIMM 0301. Briefly: MIC by agar dilution method, casitone agar. It is filed as cell-based. The settings on record: Table 5. Here is the method: as §3
For data set [5], the system named is Candida albicans TIMM 0136. Briefly: MIC by agar dilution method, casitone agar. The format is cell-based. The following applies: Table 5. The method, then:
as §3

Data set [6] in a line: 50% lethal dose (LD50) in mice. It is filed as in vivo. The text has this: All of the antibiotics R106 show low toxicity. The results of 50% lethal dose (LD50) obtained when each of representative compounds of the present invention was given to mice intravenously, intraperitoneally and orally are shown in Table 7.

Molecules are shown by their SMILES. Starred links: 1 amine or outer side, 2 acyl side, 3 side chain; linkers in the order of their positions; H or OH if unused. Non-standard residues stand in square brackets, D forms with d. Residues, ends and D or L forms follow the SMILES beside them. ξ: configuration not given here. X2 = CN(C(C(=O)[*:2])C(O)c1ccccc1)[*:1]; ξNMeVal(3-OH) = CNC(C(=O)O)C(C)(C)O; NMeF = CN[CH](Cc1ccccc1)C(=O)O; X1 = CCC(C)C(O[*:1])C(=O)[*:2]; NMeV = CN[CH](C(=O)O)C(C)C; Hiv = CC(C)[CH](O)C(=O)O

As for `CCC(C)C1NC(=O)C2CCCN2C(=O)C(Cc2ccccc2)N(C)C(=O)C(Cc2ccccc2)NC(=O)C(C(C)C)N(C)C(=O)C(C(C)CC)OC(=O)C(C(C)C)N(C)C(=O)C(CC(C)C)NC(=O)C(C(C)C)N(C)C1=O` (stereo not drawn) [Compound 7] (cyclo([X1][NMeV]F[NMeF]PI[NMeV]L[NMeV]); configuration not given here), the “minimum inhibitory concentration (MIC)” value in data set [1] is reported as greater than 25; in data set [2], greater than 25; in data set [3] it was 1.56; in data set [4], 3.12; in the data set with Candida kefyr TIMM 0301 it was 25; in data set [5], 3.12. Also, the LD50 is given as greater than 200 mg/kg in data set [6] (i.p.), greater than 100 mg/kg in data set [6] (i.v.) and greater than 200 mg/kg in data set [6] (p.o.).
For `CCC(C)C1NC(=O)C2CCCN2C(=O)C(C(O)c2ccccc2)N(C)C(=O)C(Cc2ccccc2)NC(=O)C(C(C)C)N(C)C(=O)C(C(C)CC)OC(=O)C(C(C)(C)O)N(C)C(=O)C(CC(C)C)NC(=O)C(C(C)C)N(C)C1=O` (stereo not drawn) [Compound 5] (cyclo([X2]PI[NMeV]L[ξNMeVal(3-OH)][X1][NMeV]F); configuration not given here), the “minimum inhibitory concentration (MIC)” value in data set [1] is listed as 3.12; in data set [2], 0.20; in data set [3] it was no more than 0.05; in data set [4], no more than 0.05; in the data set on Candida kefyr TIMM 0301 it was 0.20; in data set [5], no more than 0.05. The LD50 in data set [6] (i.p.) is greater than 200 mg/kg; in data set [6] (i.v.), greater than 100 mg/kg; in data set [6] (p.o.) it was greater than 200 mg/kg.
Turning to `CCC(C)C1OC(=O)C(C(C)(C)O)N(C)C(=O)C(CC(C)C)NC(=O)C(C(C)C)N(C)C(=O)C(CC(C)C)NC(=O)C2CCCN2C(=O)C(Cc2ccccc2)N(C)C(=O)C(Cc2ccccc2)NC(=O)C(C(C)C)N(C)C1=O` (stereo not drawn) [Compound 9] (cyclo([ξNMeVal(3-OH)][X1][NMeV]F[NMeF]PL[NMeV]L); configuration not given here), the “minimum inhibitory concentration (MIC)” value in data set [1] is recorded as 25; in data set [2] it was 0.39; in data set [3] it was no more than 0.05; in data set [4], 0.20; in the data set with Candida kefyr TIMM 0301, 0.20; in data set [5], no more than 0.05. Also, the LD50 in data set [6] (i.p.) is on record as greater than 200 mg/kg; in data set [6] (i.v.), greater than 100 mg/kg; in data set [6] (p.o.), greater than 200 mg/kg.
For the molecule `CCC(C)C1NC(=O)C2CCCN2C(=O)C(Cc2ccccc2)N(C)C(=O)C(Cc2ccccc2)NC(=O)C(C(C)C)N(C)C(=O)C(C(C)C)OC(=O)C(C(C)(C)O)N(C)C(=O)C(CC(C)C)NC(=O)C(C(C)C)N(C)C1=O` (stereo not drawn) [Compound 2] (cyclo([ξNMeVal(3-OH)][Hiv][NMeV]F[NMeF]PI[NMeV]L); configuration not given here), the “minimum inhibitory concentration (MIC)” value in data set [1] is on record as 1.56; in data set [2] it was 0.20; in data set [3], 0.10; in data set [4] it was 0.78; in the data set with Candida kefyr TIMM 0301, 0.20; in data set [5] it was 0.10. In addition, the LD50 in data set [6] (i.p.) is listed as greater than 200 mg/kg; in data set [6] (i.v.), greater than 100 mg/kg; in data set [6] (p.o.) it was greater than 200 mg/kg.

What is called LD50 is the dose expected to kill half of the subjects tested. Higher therefore signals lower toxicity.
